Structures are written as SMILES.

In one experiment the test system is NCI-H1755. The experiment can be described thus: relative viability (nuclei count vs DMSO), 5 days (fraction); higher = more cells survive. As to conditions: first compound 0.8 µM. In short, it runs like this:
(§1)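 Values are medians from duplicate plates. Each reflects relative viability, defined as the nuclei count of treated wells over that of vehicle wells. Lung cancer cell lines in 1536-well plates were pin-tool dosed one day after seeding with one drug alone or with a fixed anchor-drug dose plus five library-drug doses (not always all listed) in √10 steps, then fixed, stained and imaged at 4× after 5 days.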
In turn, `Nc1cccc2c1CN(C1CCC(=O)NC1=O)C2=O` (stereo not given) [Lenalidomide] + CC(=O)c1c(C)c2cnc(Nc3ccc(N4CCNCC4)cn3)nc2n(C2CCCC2)c1=O [Palbociclib] (partner 0.5 µM) registered a relative viability of 0.434.

Turning to `Nc1cccc2c1CN(C1CCC(=O)NC1=O)C2=O` (stereo not given) [Lenalidomide] + O=C(CCCCCCC(=O)Nc1ccccc1)NO [Vorinostat] (partner 1 µM), the relative viability was found to be 0.649.

For `Nc1cccc2c1CN(C1CCC(=O)NC1=O)C2=O` (stereo not given) [Lenalidomide] + COc1cccc2cc(-c3nc([C@H]4CC[C@H](C(=O)O)CC4)n4ncnc(N)c34)[nH]c12 [OSI-027] (partner 0.5 µM), the relative viability is 0.72.

Still in this experiment, the particulars now being: first compound 2.53 µM.
The compound `Nc1cccc2c1CN(C1CCC(=O)NC1=O)C2=O` (stereo not given) [Lenalidomide] + N=C(N)NC(=N)NCCc1ccccc1 [Phenformin] (partner 250 µM) came in with a relative viability of 0.682.

Turning to `Nc1cccc2c1CN(C1CCC(=O)NC1=O)C2=O` (stereo not given) [Lenalidomide] + Cc1cc(Nc2cc(N3CCN(C)CC3)nc(Sc3ccc(NC(=O)C4CC4)cc3)n2)n[nH]1 [Tozasertib] (partner 0.1 µM), the relative viability was found to be 0.597.

With `Nc1cccc2c1CN(C1CCC(=O)NC1=O)C2=O` (stereo not given) [Lenalidomide] + CC(=O)c1c(C)c2cnc(Nc3ccc(N4CCNCC4)cn3)nc2n(C2CCCC2)c1=O [Palbociclib] (partner 0.5 µM), the relative viability turned out to be 0.429.

In the case of `Nc1cccc2c1CN(C1CCC(=O)NC1=O)C2=O` (stereo not given) [Lenalidomide] + O=C(CCCCCCC(=O)Nc1ccccc1)NO [Vorinostat] (partner 1 µM), the relative viability is 0.728.

`Nc1cccc2c1CN(C1CCC(=O)NC1=O)C2=O` (stereo not given) [Lenalidomide] + COc1cccc2cc(-c3nc([C@H]4CC[C@H](C(=O)O)CC4)n4ncnc(N)c34)[nH]c12 [OSI-027] (partner 0.5 µM): the relative viability came to 0.79.

Still in this experiment, the particulars now being: first compound 8 µM.
`Nc1cccc2c1CN(C1CCC(=O)NC1=O)C2=O` (stereo not given) [Lenalidomide] + N=C(N)NC(=N)NCCc1ccccc1 [Phenformin] (partner 250 µM) registered a relative viability of 0.536.

As for `Nc1cccc2c1CN(C1CCC(=O)NC1=O)C2=O` (stereo not given) [Lenalidomide] + Cc1cc(Nc2cc(N3CCN(C)CC3)nc(Sc3ccc(NC(=O)C4CC4)cc3)n2)n[nH]1 [Tozasertib] (partner 0.1 µM), the relative viability amounted to 0.541.

As to `Nc1cccc2c1CN(C1CCC(=O)NC1=O)C2=O` (stereo not given) [Lenalidomide] + CC(=O)c1c(C)c2cnc(Nc3ccc(N4CCNCC4)cn3)nc2n(C2CCCC2)c1=O [Palbociclib] (partner 0.5 µM), the relative viability came to 0.441.

The compound `Nc1cccc2c1CN(C1CCC(=O)NC1=O)C2=O` (stereo not given) [Lenalidomide] + O=C(CCCCCCC(=O)Nc1ccccc1)NO [Vorinostat] (partner 1 µM) had a relative viability of 0.593.

Consider `Nc1cccc2c1CN(C1CCC(=O)NC1=O)C2=O` (stereo not given) [Lenalidomide] + COc1cccc2cc(-c3nc([C@H]4CC[C@H](C(=O)O)CC4)n4ncnc(N)c34)[nH]c12 [OSI-027] (partner 0.5 µM), for which the relative viability amounted to 0.67.

The test system of the next experiment is NCI-H1993. The description is as above. Particulars: first compound 0.253 µM. In short, it runs like this: as §1
In turn, `Nc1cccc2c1CN(C1CCC(=O)NC1=O)C2=O` (stereo not given) [Lenalidomide] + N=C(N)NC(=N)NCCc1ccccc1 [Phenformin] (partner 250 µM) showed a relative viability of 0.429.

For `Nc1cccc2c1CN(C1CCC(=O)NC1=O)C2=O` (stereo not given) [Lenalidomide] + Cc1cc(Nc2cc(N3CCN(C)CC3)nc(Sc3ccc(NC(=O)C4CC4)cc3)n2)n[nH]1 [Tozasertib] (partner 0.1 µM), the relative viability was determined as 0.529.

Regarding `Nc1cccc2c1CN(C1CCC(=O)NC1=O)C2=O` (stereo not given) [Lenalidomide] + CC(=O)c1c(C)c2cnc(Nc3ccc(N4CCNCC4)cn3)nc2n(C2CCCC2)c1=O [Palbociclib] (partner 0.5 µM), the relative viability stood at 0.789.

Compound `Nc1cccc2c1CN(C1CCC(=O)NC1=O)C2=O` (stereo not given) [Lenalidomide] + O=C(CCCCCCC(=O)Nc1ccccc1)NO [Vorinostat] (partner 1 µM) registered a relative viability of 0.872.

`Nc1cccc2c1CN(C1CCC(=O)NC1=O)C2=O` (stereo not given) [Lenalidomide] + COc1cccc2cc(-c3nc([C@H]4CC[C@H](C(=O)O)CC4)n4ncnc(N)c34)[nH]c12 [OSI-027] (partner 0.5 µM) displayed a relative viability of 0.401.

The experiment is the same for the next values; noted with them: first compound 0.8 µM.
The compound `Nc1cccc2c1CN(C1CCC(=O)NC1=O)C2=O` (stereo not given) [Lenalidomide] + N=C(N)NC(=N)NCCc1ccccc1 [Phenformin] (partner 250 µM) had a relative viability of 0.553.

Turning to `Nc1cccc2c1CN(C1CCC(=O)NC1=O)C2=O` (stereo not given) [Lenalidomide] + Cc1cc(Nc2cc(N3CCN(C)CC3)nc(Sc3ccc(NC(=O)C4CC4)cc3)n2)n[nH]1 [Tozasertib] (partner 0.1 µM), the relative viability is 0.572.

Regarding `Nc1cccc2c1CN(C1CCC(=O)NC1=O)C2=O` (stereo not given) [Lenalidomide] + CC(=O)c1c(C)c2cnc(Nc3ccc(N4CCNCC4)cn3)nc2n(C2CCCC2)c1=O [Palbociclib] (partner 0.5 µM), the relative viability stood at 0.659.

On to `Nc1cccc2c1CN(C1CCC(=O)NC1=O)C2=O` (stereo not given) [Lenalidomide] + O=C(CCCCCCC(=O)Nc1ccccc1)NO [Vorinostat] (partner 1 µM), for which the relative viability came to 0.615.

For the compound `Nc1cccc2c1CN(C1CCC(=O)NC1=O)C2=O` (stereo not given) [Lenalidomide] + COc1cccc2cc(-c3nc([C@H]4CC[C@H](C(=O)O)CC4)n4ncnc(N)c34)[nH]c12 [OSI-027] (partner 0.5 µM), the relative viability amounted to 0.572.

Staying with this experiment, now noted: first compound 2.53 µM.
In the case of `Nc1cccc2c1CN(C1CCC(=O)NC1=O)C2=O` (stereo not given) [Lenalidomide] + N=C(N)NC(=N)NCCc1ccccc1 [Phenformin] (partner 250 µM), the relative viability amounted to 0.551.

In the case of `Nc1cccc2c1CN(C1CCC(=O)NC1=O)C2=O` (stereo not given) [Lenalidomide] + Cc1cc(Nc2cc(N3CCN(C)CC3)nc(Sc3ccc(NC(=O)C4CC4)cc3)n2)n[nH]1 [Tozasertib] (partner 0.1 µM), the relative viability was 0.618.

`Nc1cccc2c1CN(C1CCC(=O)NC1=O)C2=O` (stereo not given) [Lenalidomide] + CC(=O)c1c(C)c2cnc(Nc3ccc(N4CCNCC4)cn3)nc2n(C2CCCC2)c1=O [Palbociclib] (partner 0.5 µM) came in with a relative viability of 0.729.

For the compound `Nc1cccc2c1CN(C1CCC(=O)NC1=O)C2=O` (stereo not given) [Lenalidomide] + O=C(CCCCCCC(=O)Nc1ccccc1)NO [Vorinostat] (partner 1 µM), the relative viability turned out to be 0.962.

Regarding `Nc1cccc2c1CN(C1CCC(=O)NC1=O)C2=O` (stereo not given) [Lenalidomide] + COc1cccc2cc(-c3nc([C@H]4CC[C@H](C(=O)O)CC4)n4ncnc(N)c34)[nH]c12 [OSI-027] (partner 0.5 µM), the relative viability worked out at 0.593.

Still in this experiment, the particulars now being: first compound 8 µM.
With `Nc1cccc2c1CN(C1CCC(=O)NC1=O)C2=O` (stereo not given) [Lenalidomide] + N=C(N)NC(=N)NCCc1ccccc1 [Phenformin] (partner 250 µM), the relative viability came out at 0.516.

In the case of `Nc1cccc2c1CN(C1CCC(=O)NC1=O)C2=O` (stereo not given) [Lenalidomide] + Cc1cc(Nc2cc(N3CCN(C)CC3)nc(Sc3ccc(NC(=O)C4CC4)cc3)n2)n[nH]1 [Tozasertib] (partner 0.1 µM), the relative viability was 0.524.

Values taken from the supplement of paper PMC10307832.
